# According to the supplement of paper PMC11061612:
# How the values were obtained:
# [1] = system: ESO51 (Esophageal Adenocarcinoma); test: combination Emax (second highest fraction inhibited in the dose matrix, 72 h); higher = more inhibition; extreme values may be limits of the assay
# How it was run: (§1)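 Cell lines grown in DMEM/F12 or RPMI with 10% FBS were plated in 1536-well plates and held 24 hours at 37°C, 5% CO2 before 72 hours of exposure to two-drug dose matrices, with DMSO typically at 0.2%. CellTiter-Glo 2.0 luminescence gave viability, which was converted to inhibition. Vehicle wells were set to 0 and blank wells to 1. Combination Emax is the second-highest inhibition in the matrix, and Bliss excess is the observed combination effect minus the expected EA + EB − EA·EB, where EA and EB are the single-agent effects.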
# [2] = system: JHH-4 (Hepatocellular Carcinoma); test: as above
# How it was run: as §1
# [3] = system: SUP-B15 (B-Lymphoblastic Leukemia); test: as above
# How it was run: as §1
# [4] = system: 8505C (Thyroid Gland Carcinoma); test: as above
# How it was run: as §1
# G-361 (Melanoma) [5] = test: as above
# How it was run: as §1
# [6] = system: KMS-12-BM (Plasma Cell Myeloma); test: as above
# How it was run: as §1
# [7] = system: DAN-G (Pancreatic Carcinoma); test: as above
# How it was run: as §1
# RD (Rhabdomyosarcoma) [8] = test: as above
# How it was run: as §1
# [9] = system: KY821 (Acute Myeloid Leukemia); test: as above
# How it was run: as §1
# [10] = system: RPMI-8226 (Plasma Cell Myeloma); test: as above
# How it was run: as §1
# [11] = system: H9 (T-Cell Non-Hodgkin's Lymphoma); test: as above
# How it was run: as §1
# [12] = system: PC-3 (Prostate Carcinoma); test: as above
# How it was run: as §1
# [13] = system: IM-95 (Gastric Carcinoma); test: as above
# How it was run: as §1
# [14] = system: CHSA8926 (Chondrosarcoma); test: as above
# How it was run: as §1
# [15] = system: NCI-H661 (Non-Small Cell Lung Carcinoma); test: as above
# How it was run: as §1
# [16] = system: SU-DHL-5 (B-Cell Non-Hodgkin's Lymphoma); test: as above
# How it was run: as §1
# [17] = system: MOLM-13 (Acute Myeloid Leukemia); test: as above
# How it was run: as §1
# [18] = system: SK-GT-2 (Gastric Carcinoma); test: as above
# How it was run: as §1
# [19] = system: HCC1187 (Breast Carcinoma); test: as above
# How it was run: as §1
# [20] = system: SNU-398 (Hepatocellular Carcinoma); test: as above
# How it was run: as §1
# [21] = system: ESO51 (Esophageal Adenocarcinoma); test: Bliss excess, mean over the matrix (fraction); higher = more synergy
# How it was run: as §1
# [22] = system: JHH-4 (Hepatocellular Carcinoma); test: as above
# How it was run: as §1
# [23] = system: SUP-B15 (B-Lymphoblastic Leukemia); test: as above
# How it was run: as §1
# [24] = system: 8505C (Thyroid Gland Carcinoma); test: as above
# How it was run: as §1
# G-361 (Melanoma) [25] = test: as above
# How it was run: as §1
# [26] = system: KMS-12-BM (Plasma Cell Myeloma); test: as above
# How it was run: as §1
# [27] = system: DAN-G (Pancreatic Carcinoma); test: as above
# How it was run: as §1
# RD (Rhabdomyosarcoma) [28] = test: as above
# How it was run: as §1
# [29] = system: KY821 (Acute Myeloid Leukemia); test: as above
# How it was run: as §1
# [30] = system: RPMI-8226 (Plasma Cell Myeloma); test: as above
# How it was run: as §1
# [31] = system: H9 (T-Cell Non-Hodgkin's Lymphoma); test: as above
# How it was run: as §1
# [32] = system: PC-3 (Prostate Carcinoma); test: as above
# How it was run: as §1
# [33] = system: IM-95 (Gastric Carcinoma); test: as above
# How it was run: as §1
# [34] = system: CHSA8926 (Chondrosarcoma); test: as above
# How it was run: as §1
# [35] = system: NCI-H661 (Non-Small Cell Lung Carcinoma); test: as above
# How it was run: as §1
# [36] = system: SU-DHL-5 (B-Cell Non-Hodgkin's Lymphoma); test: as above
# How it was run: as §1
# [37] = system: MOLM-13 (Acute Myeloid Leukemia); test: as above
# How it was run: as §1
# [38] = system: SK-GT-2 (Gastric Carcinoma); test: as above
# How it was run: as §1
# [39] = system: HCC1187 (Breast Carcinoma); test: as above
# How it was run: as §1
# [40] = system: SNU-398 (Hepatocellular Carcinoma); test: as above
# How it was run: as §1
# NCI-H2731 (Mesothelioma) [41] = test: combination Emax (second highest fraction inhibited in the dose matrix, 72 h); higher = more inhibition; extreme values may be limits of the assay
# How it was run: as §1
# SJSA-1 (Osteosarcoma) [42] = test: as above
# How it was run: as §1
# [43] = system: DMS-114 (Small Cell Lung Carcinoma); test: as above
# How it was run: as §1
# [44] = system: VMRC-RCZ (Kidney Carcinoma); test: as above
# How it was run: as §1
# [45] = system: MN-60 (B-Lymphoblastic Leukemia); test: as above
# How it was run: as §1
# [46] = system: MOG-G-CCM (Low Grade Glioma); test: as above
# How it was run: as §1
# [47] = system: NCI-H3122 (Lung Adenocarcinoma); test: as above
# How it was run: as §1
# [48] = system: NCCIT (Other Solid Carcinomas); test: as above
# How it was run: as §1
# [49] = system: ST486 (Burkitt's Lymphoma); test: as above
# How it was run: as §1
# [50] = system: COR-L279 (Small Cell Lung Carcinoma); test: as above
# How it was run: as §1
# [51] = system: T-T (Esophageal Squamous Cell Carcinoma); test: as above
# How it was run: as §1
# [52] = system: NCI-H520 (Squamous Cell Lung Carcinoma); test: as above
# How it was run: as §1
# [53] = system: KU812 (Chronic Myelogenous Leukemia); test: as above
# How it was run: as §1
# [54] = system: CW-2 (Colorectal Carcinoma); test: as above
# How it was run: as §1
# M059J (Glioblastoma) [55] = test: as above
# How it was run: as §1
# [56] = system: OCI-AML3 (Acute Myeloid Leukemia); test: as above
# How it was run: as §1
# [57] = system: NCI-H929 (Plasma Cell Myeloma); test: as above
# How it was run: as §1
# [58] = system: SK-GT-4 (Esophageal Adenocarcinoma); test: as above
# How it was run: as §1
# [59] = system: KYSE-270 (Esophageal Squamous Cell Carcinoma); test: as above
# How it was run: as §1
# [60] = system: NCI-H526 (Small Cell Lung Carcinoma); test: as above
# How it was run: as §1
# NCI-H2731 (Mesothelioma) [61] = test: Bliss excess, mean over the matrix (fraction); higher = more synergy
# How it was run: as §1
# SJSA-1 (Osteosarcoma) [62] = test: as above
# How it was run: as §1
# [63] = system: DMS-114 (Small Cell Lung Carcinoma); test: as above
# How it was run: as §1
# [64] = system: VMRC-RCZ (Kidney Carcinoma); test: as above
# How it was run: as §1
# [65] = system: MN-60 (B-Lymphoblastic Leukemia); test: as above
# How it was run: as §1
# [66] = system: MOG-G-CCM (Low Grade Glioma); test: as above
# How it was run: as §1
# [67] = system: NCI-H3122 (Lung Adenocarcinoma); test: as above
# How it was run: as §1
# [68] = system: NCCIT (Other Solid Carcinomas); test: as above
# How it was run: as §1
# [69] = system: ST486 (Burkitt's Lymphoma); test: as above
# How it was run: as §1
# [70] = system: T-T (Esophageal Squamous Cell Carcinoma); test: as above
# How it was run: as §1
# [71] = system: NCI-H520 (Squamous Cell Lung Carcinoma); test: as above
# How it was run: as §1
# [72] = system: KU812 (Chronic Myelogenous Leukemia); test: as above
# How it was run: as §1
# [73] = system: CW-2 (Colorectal Carcinoma); test: as above
# How it was run: as §1
# M059J (Glioblastoma) [74] = test: as above
# How it was run: as §1
# [75] = system: OCI-AML3 (Acute Myeloid Leukemia); test: as above
# How it was run: as §1
# [76] = system: NCI-H929 (Plasma Cell Myeloma); test: as above
# How it was run: as §1
# [77] = system: SK-GT-4 (Esophageal Adenocarcinoma); test: as above
# How it was run: as §1
# [78] = system: KYSE-270 (Esophageal Squamous Cell Carcinoma); test: as above
# How it was run: as §1
# [79] = system: NCI-H526 (Small Cell Lung Carcinoma); test: as above
# How it was run: as §1
# 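For Bliss excess, mean over the matrix in this document: after 72 h of two-drug dosing.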
compound,measurement,setting,value
"CC(=O)c1c(C)c2cnc(Nc3ccc(N4CCNCC4)cn3)nc2n(C2CCCC2)c1=O [Palbociclib] + CN(CC[C@H](CSC1=CC=CC=C1)NC2=C(C=C(C=C2)S(=O)(=O)NC(=O)C3=CC=C(C=C3)N4CCC(CC4)[C@H](C5=CC=CC=C5C6=CC=C(C=C6)Cl)O)S(=O)(=O)C(F)(F)F)CCO [AZD4320] (first compound max 10 µM, 7x7, partner max 1 µM)",combination Emax,[1],0.15
same,combination Emax,[2],0.703
same,combination Emax,[3],1
same,combination Emax,[4],0.0974
same,combination Emax,G-361 (Melanoma) [5],0.598
same,combination Emax,[6],1
same,combination Emax,[7],0.288
same,combination Emax,RD (Rhabdomyosarcoma) [8],0.875
same,combination Emax,[9],1
same,combination Emax,[10],0.95
same,combination Emax,[11],0.983
same,combination Emax,[12],0.159
same,combination Emax,[13],0.471
same,combination Emax,[14],0.741
same,combination Emax,[15],0.107
same,combination Emax,[16],1
same,combination Emax,[17],1
same,combination Emax,[18],0.531
same,combination Emax,[19],0.239
same,combination Emax,[20],0.308
same,Bliss excess,[21],-0.0853
same,Bliss excess,[22],-0.0051
same,Bliss excess,[23],-0.0515
same,Bliss excess,[24],-0.0924
same,Bliss excess,G-361 (Melanoma) [25],-0.0222
same,Bliss excess,[26],0.0159
same,Bliss excess,[27],-0.0408
same,Bliss excess,RD (Rhabdomyosarcoma) [28],0.0323
same,Bliss excess,[29],-0.0069
same,Bliss excess,[30],-0.0531
same,Bliss excess,[31],-0.0114
same,Bliss excess,[32],-0.0472
same,Bliss excess,[33],-0.133
same,Bliss excess,[34],-0.0753
same,Bliss excess,[35],-0.0643
same,Bliss excess,[36],-0.0381
same,Bliss excess,[37],-0.0259
same,Bliss excess,[38],-0.0151
same,Bliss excess,[39],-0.0429
same,Bliss excess,[40],-0.0484
"N#Cc1cnc(Nc2cc(NC[C@H]3CNCCO3)c(C(F)(F)F)cn2)cn1 [SRA737] + Nc1ccn([C@@H]2O[C@H](CO)[C@@H](O)C2(F)F)c(=O)n1 [Gemcitabine] (first compound max 10 µM, 7x7, partner max 0.3 µM)",combination Emax,NCI-H2731 (Mesothelioma) [41],0.515
same,combination Emax,SJSA-1 (Osteosarcoma) [42],0.681
same,combination Emax,[43],0.715
same,combination Emax,[44],0.518
same,combination Emax,[45],0.745
same,combination Emax,[46],0.857
same,combination Emax,[47],0.826
same,combination Emax,[48],0.816
same,combination Emax,[49],0.968
same,combination Emax,[50],0.986
same,combination Emax,[51],0.737
same,combination Emax,[52],0.892
same,combination Emax,[53],0.813
same,combination Emax,[54],0.623
same,combination Emax,M059J (Glioblastoma) [55],0.794
same,combination Emax,[56],0.93
same,combination Emax,[57],0.922
same,combination Emax,[58],0.491
same,combination Emax,[59],0.991
same,combination Emax,[60],0.942
same,Bliss excess,NCI-H2731 (Mesothelioma) [61],0.0907
same,Bliss excess,SJSA-1 (Osteosarcoma) [62],-0.0857
same,Bliss excess,[63],0.087
same,Bliss excess,[64],0.0299
same,Bliss excess,[65],-0.0116
same,Bliss excess,[66],0.0991
same,Bliss excess,[67],0.0479
same,Bliss excess,[68],0.0492
same,Bliss excess,[69],-0.006
same,Bliss excess,[70],0.144
same,Bliss excess,[71],0.0706
same,Bliss excess,[72],0.0421
same,Bliss excess,[73],0.0386
same,Bliss excess,M059J (Glioblastoma) [74],0.0426
same,Bliss excess,[75],-0.0422
same,Bliss excess,[76],0.0643
same,Bliss excess,[77],0.0313
same,Bliss excess,[78],0.0675
same,Bliss excess,[79],0.0912
